Measurements published in PMC10937199 (ESMO Open, 2024).
Read-outs that look alike come from different tables or passages of the source.

Tests used:
[1] = test system: patients with advanced solid tumors; assay: Safety; format: in vivo, human; conditions: Part FE
advanced solid tumors [2] = assay: Best overall response per RECIST version 1.1, Part A; format: in vivo, human
advanced solid tumors [3] = assay: Best overall response per RECIST version 1.1, Part B; format: in vivo, human
[4] = Peposertib plasma pharmacokinetics, Part A; format: in vivo, human; conditions: Parts A and B
[5] = Food effect on peposertib pharmacokinetics, Part FE; format: in vivo, human; conditions: after a single dose, sampling did not cover tmax
[6] = test system: patients with advanced solid tumors; conditions: Part A
[7] = test system: patients with advanced solid tumors; conditions: Part B, 100-250 mg q.d.
DNA-PK = conditions: previous studies; cited from earlier work

In the case of `COc1ccc([C@@H](O)c2cc(-c3ncnc4cc(N5CCOCC5)ccc34)c(F)cc2Cl)nn1` [Peposertib], the “Serious TEAE: sepsis” value ([1]; 100 mg b.i.d.) is reported as 2/4, the IRR ([1]; 100 mg b.i.d., all grade) is reported as 1 (25.0) n (%) and the “Immune-related AE” value ([1]; 100 mg b.i.d., all grade) is reported as 0 n (%). The “Serious TEAE” value ([1]; 100 mg b.i.d., all grade) was 2 (50.0) n (%), the “Serious TEAE, peposertib related” value ([1]; 100 mg b.i.d., all grade) was 1 (25.0) n (%) and the “Serious TEAE, treatment related” value ([1]; 100 mg b.i.d., all grade) was 1 (25.0) n (%). The TEAE ([1]; 100 mg b.i.d., all grade) was 4 (100.0) n (%), the “TEAE leading to death” value ([1]; 100 mg b.i.d., all grade) was 1 (25.0) n (%) and the “TEAE, peposertib related” value ([1]; 100 mg b.i.d., all grade) was 3 (75.0) n (%). The “TEAE, treatment related” value ([1]; 100 mg b.i.d., all grade) was 3 (75.0) n (%), the “Treatment-related AE leading to death” value ([1]; 100 mg b.i.d., all grade) was 0 n (%) and the IRR ([1]; 100 mg b.i.d., grade ≥3) was 0 n (%). For the same compound, the “Immune-related AE” value ([1]; 100 mg b.i.d., grade ≥3) was 0 n (%), the “Serious TEAE” value ([1]; 100 mg b.i.d., grade ≥3) was 2 (50.0) n (%) and the “Serious TEAE, peposertib related” value ([1]; 100 mg b.i.d., grade ≥3) was 1 (25.0) n (%). For the same compound, the “Serious TEAE, treatment related” value ([1]; 100 mg b.i.d., grade ≥3) was 1 (25.0) n (%), the TEAE ([1]; 100 mg b.i.d., grade ≥3) was 3 (75.0) n (%) and the “TEAE leading to death” value ([1]; 100 mg b.i.d., grade ≥3) was 1 (25.0) n (%). For the same compound, the “TEAE, peposertib related” value ([1]; 100 mg b.i.d., grade ≥3) was 1 (25.0) n (%), the “TEAE, treatment related” value ([1]; 100 mg b.i.d., grade ≥3) was 1 (25.0) n (%) and the “Treatment-related AE leading to death” value ([1]; 100 mg b.i.d., grade ≥3) was 0 n (%). The IRR ([1]; 200 mg b.i.d., all grade) was 1 (20.0) n (%), the “Immune-related AE” value ([1]; 200 mg b.i.d., all grade) was 2 (40.0) n (%) and the “Serious TEAE” value ([1]; 200 mg b.i.d., all grade) was 3 (60.0) n (%). For the same compound, the “Serious TEAE, peposertib related” value ([1]; 200 mg b.i.d., all grade) was 1 (20.0) n (%), the “Serious TEAE, treatment related” value ([1]; 200 mg b.i.d., all grade) was 2 (40.0) n (%) and the TEAE ([1]; 200 mg b.i.d., all grade) was 5 (100.0) n (%). The “TEAE leading to death” value ([1]; 200 mg b.i.d., all grade) was 1 (20.0) n (%), the “TEAE, peposertib related” value ([1]; 200 mg b.i.d., all grade) was 5 (100.0) n (%) and the “TEAE, treatment related” value ([1]; 200 mg b.i.d., all grade) was 5 (100.0) n (%). The “Treatment-related AE leading to death” value ([1]; 200 mg b.i.d., all grade) was 0 n (%), the IRR ([1]; 200 mg b.i.d., grade ≥3) was 1 (20.0) n (%) and the “Immune-related AE” value ([1]; 200 mg b.i.d., grade ≥3) was 2 (40.0) n (%). The “Serious TEAE” value ([1]; 200 mg b.i.d., grade ≥3) was 3 (60.0) n (%), the “Serious TEAE, peposertib related” value ([1]; 200 mg b.i.d., grade ≥3) was 1 (20.0) n (%) and the “Serious TEAE, treatment related” value ([1]; 200 mg b.i.d., grade ≥3) was 2 (40.0) n (%). For the same compound, the TEAE ([1]; 200 mg b.i.d., grade ≥3) was 4 (80.0) n (%), the “TEAE leading to death” value ([1]; 200 mg b.i.d., grade ≥3) was 1 (20.0) n (%) and the “TEAE, peposertib related” value ([1]; 200 mg b.i.d., grade ≥3) was 3 (60.0) n (%). For the same compound, the “TEAE, treatment related” value ([1]; 200 mg b.i.d., grade ≥3) was 4 (80.0) n (%), the “Treatment-related AE leading to death” value ([1]; 200 mg b.i.d., grade ≥3) was 0 n (%) and the “Discontinuation of all study treatments due to AEs” value ([1]; all dose levels) was 4 (44.4%). The “Peposertib-related TEAE: diarrhea” value ([1]; all dose levels) was 4 (44.4%), the “Peposertib-related TEAE: fatigue” value ([1]; all dose levels) was 5 (55.6%) and the “Patients with complete response (CR) or partial response (PR)” value (advanced solid tumors [2]) was “no patients”. The “Best overall response of stable disease (SD) or non-CR/non-PD” value (advanced solid tumors [2]; all dose levels) was 17.2%, the “Patients with complete response (CR) or partial response (PR)” value (advanced solid tumors [3]) was “no patients” and the “Best overall response of stable disease (SD) or non-CR/non-PD” value (advanced solid tumors [3]; all dose levels) was 31.6%. For the same compound, the “Peposertib exposure versus dose” value ([4]; across all dose levels after single or multiple (q.d. and b.i.d.) doses) was “generally proportional to the dose”, the Accumulation ([4]; after q.d. and b.i.d. dosing) was “Some accumulation was observed” and the “Effect of food on peposertib Cmax” value [5] was “food delayed peposertib Cmax”. For the same compound, the “DLT by preferred term: Acute kidney injury” value (“DLT … Acute kidney injury” for short) ([6]; 100 mg b.i.d.) was 0 n (%), the “DLT by preferred term: Febrile neutropenia” value (“DLT … Febrile neutropenia” below) ([6]; 100 mg b.i.d.) was 0 n (%) and the “DLT by preferred term: Neutropenia” value ([6]; 100 mg b.i.d.) was 0 n (%). For the same compound, the “DLT by preferred term: Neutrophil count decreased” value (shortened to “DLT … Neutrophil count decreased”) ([6]; 100 mg b.i.d.) was 0 n (%), the “DLT by preferred term: Pneumonitis” value ([6]; 100 mg b.i.d.) was 0 n (%) and the “DLT by preferred term: Pyrexia” value ([6]; 100 mg b.i.d.) was 0 n (%). For the same compound, the “DLT by preferred term: Rash” value ([6]; 100 mg b.i.d.) was 0 n (%), the “DLTs per patient: 1” value ([6]; 100 mg b.i.d.) was 0 n (%) and the “DLTs per patient: 2” value ([6]; 100 mg b.i.d.) was 0 n (%). The “DLTs per patient: ≥3” value ([6]; 100 mg b.i.d.) was 0 n (%), the “Patients with DLT” value ([6]; 100 mg b.i.d.) was 0 n (%) and the “DLT … Acute kidney injury” value ([6]; 200 mg b.i.d.) was 0 n (%). The “DLT … Febrile neutropenia” value ([6]; 200 mg b.i.d.) was 0 n (%), the “DLT by preferred term: Neutropenia” value ([6]; 200 mg b.i.d.) was 0 n (%) and the “DLT … Neutrophil count decreased” value ([6]; 200 mg b.i.d.) was 0 n (%). The “DLT by preferred term: Pneumonitis” value ([6]; 200 mg b.i.d.) was 0 n (%), the “DLT by preferred term: Pyrexia” value ([6]; 200 mg b.i.d.) was 0 n (%) and the “DLT by preferred term: Rash” value ([6]; 200 mg b.i.d.) was 0 n (%). The “DLTs per patient: 1” value ([6]; 200 mg b.i.d.) was 0 n (%), the “DLTs per patient: 2” value ([6]; 200 mg b.i.d.) was 0 n (%) and the “DLTs per patient: ≥3” value ([6]; 200 mg b.i.d.) was 0 n (%). For the same compound, the “Patients with DLT” value ([6]; 200 mg b.i.d.) was 0 n (%), the “DLT … Acute kidney injury” value ([6]; 250 mg b.i.d.) was 0 n (%) and the “DLT … Febrile neutropenia” value ([6]; 250 mg b.i.d.) was 0 n (%). For the same compound, the “DLT by preferred term: Neutropenia” value ([6]; 250 mg b.i.d.) was 0 n (%), the “DLT … Neutrophil count decreased” value ([6]; 250 mg b.i.d.) was 0 n (%) and the “DLT by preferred term: Pneumonitis” value ([6]; 250 mg b.i.d.) was 1 (50.0) n (%). The “DLT by preferred term: Pyrexia” value ([6]; 250 mg b.i.d.) was 0 n (%), the “DLT by preferred term: Rash” value ([6]; 250 mg b.i.d.) was 0 n (%) and the “DLTs per patient: 1” value ([6]; 250 mg b.i.d.) was 1 (50.0) n (%). The “DLTs per patient: 2” value ([6]; 250 mg b.i.d.) was 0 n (%), the “DLTs per patient: ≥3” value ([6]; 250 mg b.i.d.) was 0 n (%) and the “Patients with DLT” value ([6]; 250 mg b.i.d.) was 1 (50.0) n (%). The “DLT … Acute kidney injury” value ([6]; 300 mg b.i.d.) was 0 n (%), the “DLT … Febrile neutropenia” value ([6]; 300 mg b.i.d.) was 0 n (%) and the “DLT by preferred term: Neutropenia” value ([6]; 300 mg b.i.d.) was 0 n (%). The “DLT … Neutrophil count decreased” value ([6]; 300 mg b.i.d.) was 0 n (%), the “DLT by preferred term: Pneumonitis” value ([6]; 300 mg b.i.d.) was 1 (25.0) n (%) and the “DLT by preferred term: Pyrexia” value ([6]; 300 mg b.i.d.) was 0 n (%). The “DLT by preferred term: Rash” value ([6]; 300 mg b.i.d.) was 0 n (%), the “DLTs per patient: 1” value ([6]; 300 mg b.i.d.) was 1 (25.0) n (%) and the “DLTs per patient: 2” value ([6]; 300 mg b.i.d.) was 0 n (%). For the same compound, the “DLTs per patient: ≥3” value ([6]; 300 mg b.i.d.) was 0 n (%), the “Patients with DLT” value ([6]; 300 mg b.i.d.) was 1 (25.0) n (%) and the “DLT … Acute kidney injury” value ([6]; 400 mg b.i.d.) was 1 (25.0) n (%). The “DLT … Febrile neutropenia” value ([6]; 400 mg b.i.d.) was 1 (25.0) n (%), the “DLT by preferred term: Neutropenia” value ([6]; 400 mg b.i.d.) was 1 (25.0) n (%) and the “DLT … Neutrophil count decreased” value ([6]; 400 mg b.i.d.) was 1 (25.0) n (%). For the same compound, the “DLT by preferred term: Pneumonitis” value ([6]; 400 mg b.i.d.) was 0 n (%), the “DLT by preferred term: Pyrexia” value ([6]; 400 mg b.i.d.) was 1 (25.0) n (%) and the “DLT by preferred term: Rash” value ([6]; 400 mg b.i.d.) was 1 (25.0) n (%). For the same compound, the “DLTs per patient: 1” value ([6]; 400 mg b.i.d.) was 1 (25.0) n (%), the “DLTs per patient: 2” value ([6]; 400 mg b.i.d.) was 1 (25.0) n (%) and the “DLTs per patient: ≥3” value ([6]; 400 mg b.i.d.) was 1 (25.0) n (%). The “Patients with DLT” value ([6]; 400 mg b.i.d.) was 3 (75.0) n (%), the DLT [7] was “no DLT was reported” and the DNA-PK inhibition (DNA-PK) was “time- and concentration-dependent manner”.
